Reference: the NIST ThermoML archive (doi:10.1021/je060170c)

Assay: xn = mol fraction of the nth substance listed
Settings: 101 kPa, Liquid; for viscosity: Anton Paar Stabinger viscometer

COc1ccccc1 [anisole] + Cc1cccc(C)c1
Settings	mass density [kg/m3]	speed of sound [m/s]	viscosity [mPa·s]
288.15 K, x1 = 0.1144	882.011	1369.2	0.696
288.15 K, x1 = 0.2566	899.519	1380.5	0.745
288.15 K, x1 = 0.3821	915.327	1390.9	0.799
288.15 K, x1 = 0.5034	930.924	1401	0.856
288.15 K, x1 = 0.6546	950.873	1414.1	0.933
288.15 K, x1 = 0.7535	964.193	1424	0.995
288.15 K, x1 = 0.8432	976.464	1432	1.049
288.15 K, x1 = 0.9133	986.213	1439.3	1.103
288.15 K, x1 = 0.9576	992.455	1445.2	1.149
288.15 K, x1 = 1	998.44	1449.1	1.188
293.15 K, x1 = 0.1144	877.742	1351	0.645
293.15 K, x1 = 0.2566	895.185	1362.2	0.688
293.15 K, x1 = 0.3821	910.905	1372.1	0.734
293.15 K, x1 = 0.5034	926.441	1381.4	0.783
293.15 K, x1 = 0.6546	946.321	1393.9	0.851
293.15 K, x1 = 0.7535	959.605	1402.8	0.908
293.15 K, x1 = 0.8432	971.843	1411.1	0.958
293.15 K, x1 = 0.9133	981.575	1418.4	1.008
293.15 K, x1 = 0.9576	987.755	1423.6	1.051
293.15 K, x1 = 1	993.651	1428.5	1.084
298.15 K, x1 = 0.1144	873.473	1328.5	0.607
298.15 K, x1 = 0.2566	890.874	1339.2	0.647
298.15 K, x1 = 0.3821	906.561	1349.8	0.687
298.15 K, x1 = 0.5034	922.056	1360.1	0.734
298.15 K, x1 = 0.6546	941.9	1373.5	0.798
298.15 K, x1 = 0.7535	955.192	1382.5	0.852
298.15 K, x1 = 0.8432	967.423	1391	0.899
298.15 K, x1 = 0.9133	977.136	1398.1	0.947
298.15 K, x1 = 0.9576	983.283	1403.1	0.988
298.15 K, x1 = 1	989.15	1408	1.017
303.15 K, x1 = 0.1144	869.172	1308	0.574
303.15 K, x1 = 0.2566	886.499	1318.7	0.604
303.15 K, x1 = 0.3821	902.126	1328.8	0.639
303.15 K, x1 = 0.5034	917.578	1339.1	0.677
303.15 K, x1 = 0.6546	937.368	1352.6	0.733
303.15 K, x1 = 0.7535	950.619	1362	0.782
303.15 K, x1 = 0.8432	962.844	1371	0.824
303.15 K, x1 = 0.9133	972.502	1378.3	0.868
303.15 K, x1 = 0.9576	978.641	1383.1	0.905
303.15 K, x1 = 1	984.372	1387.7	0.931
